Test results taken from PubChem BioAssay (NCI).
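These data come from cells grown in 96-well plates and exposed to compound for 48 hours at five concentrations. Here, GI50 denotes the concentration required for 50% inhibition of growth. TGI denotes the concentration required for complete inhibition of growth.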

Key:
Assay in all cases: inhibition of tumour cell growth, NCI panel, 48 h
HCC-2998 colon = test system: HCC-2998 colon
M14 melanoma = test system: M14 melanoma
A549 NSCLC = test system: A549 NSCLC
MOLT-4 leukemia = test system: MOLT-4 leukemia
SNB-19 CNS = test system: SNB-19 CNS
MALME-3M melanoma = test system: MALME-3M melanoma
NCI-H23 lung = test system: NCI-H23 lung
SF-539 CNS = test system: SF-539 CNS
TK-10 renal = test system: TK-10 renal
RXF 393 renal = test system: RXF 393 renal

Row | Compound | GI50 (HCC-2998 colon) | TGI (HCC-2998 colon) | GI50 (M14 melanoma) | TGI (M14 melanoma) | GI50 (A549 NSCLC) | TGI (A549 NSCLC) | GI50 (MOLT-4 leukemia) | TGI (MOLT-4 leukemia) | GI50 (SNB-19 CNS) | TGI (SNB-19 CNS) | GI50 (MALME-3M melanoma) | TGI (MALME-3M melanoma) | GI50 (NCI-H23 lung) | TGI (NCI-H23 lung) | GI50 (SF-539 CNS) | TGI (SF-539 CNS) | GI50 (TK-10 renal) | TGI (TK-10 renal) | GI50 (RXF 393 renal) | TGI (RXF 393 renal)
1 | N#C[S-].[La+3].c1ccc(-c2ccccn2)nc1.c1ccc(-c2ccccn2)nc1.c1ccc(-c2ccccn2)nc1 | 17.4 µM | > 100 µM | 12.1 µM | 27.9 µM | 28.6 µM | > 100 µM | 10.5 µM | > 100 µM | 54.6 µM | > 100 µM | 23.3 µM | 60.9 µM | 29.1 µM | > 100 µM | 33.2 µM | > 100 µM | 15.7 µM | > 100 µM | 22.5 µM | 84.7 µM
2 | O=c1cc(-c2cccc(OC(F)(F)F)c2)[nH]c2ccc(N3CCCC3)cc12 |  | 0.011 µM |  | > 100 µM |  | 44.5 µM |  | 0.00157 µM |  | 11.9 µM |  | > 100 µM |  | 0.0502 µM |  | 0.000621 µM | 0.0431 µM | 6.79 µM |  | 0.738 µM
3 | Clc1cc(N/N=C(\c2ccccc2)c2ccccn2)ncn1 |  | > 100 µM |  | > 100 µM |  | > 100 µM |  | 3.48 µM |  | > 100 µM |  | 3.35 µM |  | > 100 µM |  | 3.26 µM |  | > 100 µM |  | > 100 µM
